According to paper PMC11931445, “A Novel Compound QO‐83 Alleviates Acute and Chronic Epileptic Seizures in Rodents by Modulating KV7 Channel Activity” (CNS Neuroscience & Therapeutics, 2025):

Key:
[1] = target: T1, KV7.1/KCNE1 channel (Homo sapiens, UniProt P51787); experiment: Rb+ efflux high-throughput screening (ICR 8000); format: cell-based; settings: up to 100 μM, transient expression in HEK293 cells
T1 construct: expressed in transfected cells; host or cells: HEK293, transient expression
Description: Furthermore, the KV7.1 channel, which co-expresses with the auxiliary subunit KCNE1 to form slowly activated delayed rectifier potassium currents (IKs) during cardiac repolarization, was evaluated using the Rb^+ efflux high-throughput screening technique to determine the opening activity of QO-83 on the KCNQ1/E1 channel.
(§1) [picture] Figure S3: The activation effect of QO-83 on the KV7 channels was preliminarily verified by high-throughput screening. (A)High-throughput screening for KV7.2/7.3 stable expressed in CHO cells (n = 6). (B)High-throughput screening for KV7.4 stable expressed in HEK293 cells (n = 6). (C) High-throughput screening for KCNQ1/E1 transient expression in HEK293 cells (n = 6).
The high-throughput screening experiment utilizing the ICR 8000 rubidium ion elution method aimed to assess the sensitivity of QO-83 towards KV7.2/3 and KV7.1 channels. Cells in the logarithmic growth phase were seeded into 96-well plates at a density of 2×10^5 cells per well. Following overnight incubation, the medium was replaced with 200 μL of RBCL-loaded buffer and incubated under controlled conditions (5% CO2, 37°C) for 3 hours. The loading buffer composition consisted of 5.4 mM RbCl, 5 mM Glucose, 25 mM HEPES, 150 mM NaCl, 1 mM MgCl2, 0.8 mM NaH2PO4•2H2O, and 2 mM CaCl2. […]

[2] = tested on: PTZ-induced seizures; experiment: Metrazol maximal seizure (MMS) model; format: in vivo, C57BL/6J mice; settings: 15 mg/kg
Description: For this experimental phase, male C57BL/6J mice weighing between 18 g and 25 g were randomly assigned to four groups based on their body weight. The QO‐83 group was divided into two subgroups, one receiving a dosage of 1 mg/kg (i.p.) and the other receiving a dosage of 3 mg/kg (i.p.).
PTZ (85 mg/kg, 0.1 mL per 10 g) was administered subcutaneously at the nape of the neck. Subsequently, mice were promptly placed in individual transparent observation chambers under quiet conditions. A stopwatch was utilized to measure seizure latency, defined as the time from PTZ injection to the onset of a generalized systemic clonic seizure and loss of the […]. The number of animals experiencing seizures was manually recorded.

[3] = tested on: pilocarpine-induced seizures; experiment: Pilocarpine-induced status epilepticus model with EEG; format: in vivo, Sprague–Dawley (SD) rats; settings: for effect on EEG power spectral density: pilocarpine-treated rats
Text: For animal experiments, we used adult male Sprague–Dawley (SD) rats weighing between 240 and 260 g. Isoflurane anesthesia was used for all operations. Rats were secured in a stereotaxic frame, and the anterior fontanelle was marked 3 mm posteriorly. Additionally, marks were made approximately 3 mm lateral to the midline on both sides to indicate the insertion points for the positive and negative electrodes. A ground electrode was placed subcutaneously in the occipital lobe to eliminate recording noise. Postoperatively, each animal was housed separately in a single cage and provided food and water ad libitum. After a 3‐day adaptation period, electroencephalograms (EEG) were recorded.
The experimental procedure commenced with an intraperitoneal injection of lithium chloride (127 mg/kg). After 24 h, subcutaneous scopolamine methyl nitrate (1 mg/kg) was administered. […] Twenty minutes later, status epilepticus (SE) was induced by administering pilocarpine (100 mg/kg, i.p.). SE was terminated 2 h later by administering 10% chloral hydrate.
The Pilo group, 2 mg/kg XE991 group, and 2 mg/kg XE991 + 1 mg/kg QO‐83 group received an intraperitoneal injection of lithium chloride (127 mg/kg) 24 h prior to testing. Following this, scopolamine methyl nitrate (1 mg/kg) was administered […], and after 10 min, each group was treated with 25% beta‐cyclodextrin, 2 mg/kg XE991, or 2 mg/kg XE991, respectively. After 15 min, 25% beta‐cyclodextrin, 25% beta‐cyclodextrin, or 1 mg/kg QO‐83 was administered. Finally, 25 min later, pilocarpine (100 mg/kg, i.p.) was administered to induce seizures.
Seizure severity was assessed using a standardized scale ranging from 1 to 5, adapted from previous research criteria. Stage 1 encompasses mouth and facial movements, including wet dog shakes. Stage 2 involves head nodding. Stage 3 is characterized by unilateral forelimb clonus. […] Finally, stage 5 manifests as clonus of all limbs accompanied by falling.

[4] = tested on: PNC-induced seizures; experiment: Penicillin (PNC) induced acute epilepsy model; format: in vivo, SD rats; settings: 40 mg/kg i.g.
Description: In the penicillin (PNC) induced acute epilepsy model study, male SD rats weighing between 180 g and 250 g were utilized. […] Each group consisted of 10 rats.
PNC was administered intraperitoneally at a dose of 8 million U/kg to induce epileptic seizures. […] In the Compound QO‐83 treatment groups, rats were orally administered the designated doses of Compound QO‐83, followed by an intraperitoneal injection of PNC after a 20‐min interval. The PNC model group received an oral gavage of a 0.5% CMC‐Na solution, followed by an intraperitoneal injection of PNC after a 20‐min interval. […] Seizure behaviors, including convulsions, limb jerks, and loss of postural control, were observed and analyzed in all groups.

[5] = tested on: electroshock seizures; experiment: Maximal electroshock seizure (MES) model; format: in vivo, Kunming mice; settings: 15 mg/kg i.p.
[6] = tested on: PTZ kindling seizures; experiment: Chronic PTZ-induced epileptic kindling model; format: in vivo, Wistar Institute rats
Description: In the preparation of the chronic PTZ‐induced epileptic kindling model, male Wistar Institute rats weighing between 180 and 250 g were utilized. […] During the modeling period, all groups received daily intraperitoneal injections of 0.2 mL/100 g between 9:00 and 15:00.
Seizure severity was assessed using the Racine scale.

[7] = target: T2, KV7.2/7.3 (Homo sapiens, UniProt O43525+O43526); experiment: Rb+ efflux high-throughput screening (ICR 8000); format: cell-based
T2 construct: expressed in transfected cells
Text: (§2) The activation effect of QO-83 on the KV7 channel was preliminarily verified using high-throughput screening methodologies.
as §1
(§3) The high-throughput screening experiment utilizing the ICR 8000 rubidium ion elution method aimed to assess the sensitivity of QO-83 towards KV7.2/3 and KV7.1 channels. Cells in the logarithmic growth phase were seeded into 96-well plates at a density of 2×10^5 cells per well. Following overnight incubation, the medium was replaced with 200 μL of RBCL-loaded buffer and incubated under controlled conditions (5% CO2, 37°C) for 3 hours. The loading buffer composition consisted of 5.4 mM RbCl, 5 mM Glucose, 25 mM HEPES, 150 mM NaCl, 1 mM MgCl2, 0.8 mM NaH2PO4•2H2O, and 2 mM CaCl2.
(§4) Subsequently, the solution was aspirated, and the cells were washed thrice with Washing Buffer (5.4 mM KCl, 25 mM HEPES, 150 mM NaCl, 1 mM MgCl2, 0.8 mM NaH2PO4•2H2O, 2 mM CaCl2). […] Each concentration was distributed across triplicate wells, with corresponding concentration solvent control wells included. […]

[8] = target: T3, KV7.4 (Homo sapiens, UniProt P56696); experiment: Rb+ efflux high-throughput screening (ICR 8000); format: cell-based
T3 construct: expressed in transfected cells
Text: as §2, §1, §3, §4

## CCOC(=O)Nc1ccc(NCc2ccc(F)cc2)cc1N [RTG, retigabine]
[1]
  opening activity on KV7.1/KCNE1 channel: did not affect
[2]
  seizure protection rate: 40%
[3]; 1 mg/kg i.p.
  effect on epileptic behavior: could not rescue the epileptic behavior
  effect on EEG power spectral density: did not exhibit effects equivalent
[3]; 10 mg/kg i.p.
  effect on latency of seizures: significantly prolonged the latency of seizures
  effect on seizure grade: reduced the seizure grade
  effect on EEG power spectral density: significantly inhibited the increase in EEG power spectral density
[4]
  effect on seizure latency: significantly increased seizure latency
  seizure grade: 2.66 ± 0.33
[5]
  electroshock protection rate: 90%
[6]; 10 mg/kg
  effect on latency period: significantly prolong the latency period
[6]; 10 mg/kg i.p. daily, 30th day, model 4.68 ± 0.62
  seizure grade: 1.75 ± 0.31
[7]
  EC50: 180 ± 70 nM
[8]
  EC50: 1380 ± 310 nM
